Results as given in patent US7879872B2, “Compositions comprising multiple bioactive agents, and methods of using the same” (Affinium Pharmaceuticals, Inc., priority 2003, dated 2011).
Where “and” joins values, the source holds several entries; their conditions need not be identical. Identical values can stand only once.

What was measured:
S. aureus 29213 = experiment: checkerboard combination study (FIC index); format: cell-based, Staphylococcus aureus; parameters: key: FIC index = average of FICA+FICB (MIC combo/MIC alone)
Description: (§1) The combination experiments were performed and the results were interpreted using the checkerboard method as described in Eliopoulous, G. M., and R. C. Moellering, 1996, Antimicrobial combinations, p. 330-396, In V. Lorian (ed.), Antibiotics in laboratory medicine, 4th ed., The Williams & Wilkins Co., Baltimore, Md., in 96-well microtiter plates. Compound A was serially diluted along the x-axis of the test plate to a final volume of 50 μl, and compound B was serially diluted in a separate transfer plate. Dilutions in both plates were made in CAMHB (cation-adjusted Mueller Hinton broth) for Staphylococci and in CAMHB+5% sheep blood for Streptococci. Aliquots (50 μl) of Compound B were transferred to the test plate along the y-axis thereby achieving a checkerboard matrix of antimicrobial combinations (100 μl total volume) as in FIG. 4. The first column and last row (shaded in FIG. 4) contained only compound B or compound A, respectively. Plates were then inoculated with 10 μl of the test microorganism and MICs were determined according to NCCLS guidelines (see National Committee for Clinical Laboratory Standards, 2000, Methods for Dilution Antimicrobial Susceptibility Tests for Bacteria That Grow Aerobically—Fifth Edition, Approved Standard M7-A5, NCCLS, Wayne, Pa., USA.)
(§2) Data analysis was performed as follows and according to Eliopoulous, G. M., and R. C. Moellering, 1996, Antimicrobial combinations, p. 330-396, In V. Lorian (ed.), Antibiotics in laboratory medicine, 4th ed., The Williams & Wilkins Co., Baltimore, Md. First individual FIC values for each combination in a plate were calculated: FIC(Fractional Inhibitory Concentration)=FICA+FICB • FICA=MICA+B/MICA i.e. the MIC of combination of compound A+compound B divided by the MIC of compound A alone. • FICB=MICB+A/MICB i.e. the MIC of combination of compound B+compound A divided by the MIC of compound B alone.
(§3) FIC values were calculated only for combinations that enabled determination of a true MIC (e.g. not > or <=values). FIC indexes were then calculated as the average of individual FIC values for each combination plate.

S. aureus 43300 = experiment: checkerboard combination study (FIC index); format: cell-based, Staphylococcus aureus; parameters: key: FIC index = average of FICA+FICB (MIC combo/MIC alone); conditions: S. aureus 43300 (MRSA)
Description: as §1, §2, §3

S. pneumoniae 22257 = experiment: Combination Time-kill kinetics; format: cell-based; conditions: alone or with Azithromycin 4 × MIC (0.12 ug/ml) or Cefuroxime 4 × MIC (8 ug/ml)
Description: (§4) As used herein, “synergy” refers to the in vitro effect of administration of a combination of an antibacterial agent such as a Fab I inhibiter, and antiinfective agent such that (1) the fractional inhibitory concentration (FIC) is less than or equal to 0.5 in an FIC assay described herein; or (2) there is at least a 100-fold (2 log10) increase in killing at 24 hours for the combination as compared with the bioactive agent alone in a time kill curve assay as described herein. An FIC of ≦0.5 is evidence of synergy. An additive response has an FIC value of >0.5 and less than or equal to 1, while an indifferent response has an FIC value of >1 and ≦2. An additive effect may still indicate that the combination of bioactive agent and cationic peptide are therapeutically useful.

S. pneumoniae 22425 = experiment: Combination Time-kill kinetics; format: cell-based; conditions: alone or with Gatifloxacin 4 × MIC (2 ug/ml)
Description: as §4

[1] = test system: S. pneumoniae 22425, a penicillin and macrolide resistant clinical isolate; experiment: Combination time-kill studies; format: cell-based; conditions: compound alone at both 0.03 μg/ml and 1 μg/ml; S. pneumoniae 22425; FIG. 8
Description: Combination time-kill studies were performed as follows. Bacterial inocula were prepared as for MIC determination according to CLSI guidelines. Log phase cells (˜10^6 CFU/ml) were inoculated into 24 well plates and incubated with the indicated concentrations of compound G and commercial antibiotics for 24 hours at 35° C. At indicated time points samples were removed for determination of viable CFU counts. Results are plotted as log CFU/ml vs. time.

## Cc1c(CN(C)C(=O)/C=C/c2cnc3c(c2)CCC(=O)N3)oc2ccccc12 [Compound G, (E)-N-methyl-N-(3-methylbenzofuran-2-ylmethyl)-3-(7-oxo-5,6,7,8-tetrahydro-1,8-naphthyridin-3-yl)acrylamide]
S. aureus 29213; with Cefuroxime
  FIC Index: 0.8
S. aureus 29213; with Cloxacillin
  FIC Index: 2
S. aureus 29213; with Erythromycin
  FIC Index: 2
S. aureus 29213; with Gentamcin
  FIC Index: 0.3
S. aureus 29213; with Levofloxacin
  FIC Index: 1
S. aureus 29213; with Linezolid
  FIC Index: 0.5
S. aureus 29213; with Nafcillin
  FIC Index: 0.8
S. aureus 29213; with Rifampicin
  FIC Index: 0.8
S. aureus 29213; with Tetracycline
  FIC Index: 2
S. aureus 29213; with Vancomycin
  FIC Index: 1
S. aureus 43300; with Cefuroxime
  FIC Index: 0.5
S. aureus 43300; with Cloxacillin
  FIC Index: 0.75
S. aureus 43300; with Gentamcin
  FIC Index: 0.4
S. aureus 43300; with Levofloxacin
  FIC Index: 2
S. aureus 43300; with Linezolid
  FIC Index: 0.5
S. aureus 43300; with Nafcillin
  FIC Index: 0.7
S. aureus 43300; with Rifampicin
  FIC Index: 0.75
S. aureus 43300; with Tetracycline
  FIC Index: 1
S. aureus 43300; with Vancomycin
  FIC Index: 0.75
S. pneumoniae 22257; Compound G 0.03 ug/ml
  logCFU/ml at Time (hr): 0: 6.41 logCFU/ml and 6.20 logCFU/ml
  logCFU/ml at Time (hr): 3: 8.31 logCFU/ml and 8.15 logCFU/ml
  logCFU/ml at Time (hr): 6: 9.23 logCFU/ml and 9.35 logCFU/ml
  logCFU/ml at Time (hr): 8: 9.32 logCFU/ml
  logCFU/ml at Time (hr): 24: 9.68 logCFU/ml and 9.65 logCFU/ml
  ΔlogCFU/ml (24-0 hr): 3.26 logCFU/ml and 3.45 logCFU/ml
S. pneumoniae 22257; Compound G 1 ug/ml
  logCFU/ml at Time (hr): 0: 6.43 logCFU/ml and 6.30 logCFU/ml
  logCFU/ml at Time (hr): 3: 8.30 logCFU/ml and 8.17 logCFU/ml
  logCFU/ml at Time (hr): 6: 9.33 logCFU/ml and 9.20 logCFU/ml
  logCFU/ml at Time (hr): 8: 9.47 logCFU/ml and 9.41 logCFU/ml
  logCFU/ml at Time (hr): 24: 9.68 logCFU/ml and 9.71 logCFU/ml
  ΔlogCFU/ml (24-0 hr): 3.25 logCFU/ml and 3.40 logCFU/ml
S. pneumoniae 22425; Compound G 0.03 ug/ml
  logCFU/ml at Time (hr): 0: 5.20 logCFU/ml
  logCFU/ml at Time (hr): 2: 5.63 logCFU/ml
  logCFU/ml at Time (hr): 6: 7.25 logCFU/ml
  logCFU/ml at Time (hr): 24: 7.61 logCFU/ml
  ΔlogCFU/ml (24-0 hr): 2.41 logCFU/ml
S. pneumoniae 22425; Compound G 1 ug/ml
  logCFU/ml at Time (hr): 0: 5.12 logCFU/ml
  logCFU/ml at Time (hr): 2: 5.61 logCFU/ml
  logCFU/ml at Time (hr): 6: 7.18 logCFU/ml
  logCFU/ml at Time (hr): 24: 7.58 logCFU/ml
  ΔlogCFU/ml (24-0 hr): 2.45 logCFU/ml
[1]
  activity against S. pneumoniae (time-kill): no activity
